Test results from patent publication EP1541559A1, “5-SUBSTITUTED ISOQUINOLINE DERIVATIVE” (Asahi Kasei Pharma Corporation, priority 2002, dated 2004).
Read-outs that look alike come from different tables or passages of the source.

How the values were obtained:
[1] = test system: Neutrophils; test: Neutrophil migration inhibitory action, Boyden Chamber, FMLP (Test Example 5); assay type: cell-based, human; conditions: Homo sapiens, Neutrophil, 0.5 h, FMLP (1 µM), migration at 37°C for 30 minutes; read-out: Neutrophil migration inhibition IC50
Protocol: Neutrophils were isolated from 50 to 100 ml of peripheral blood collected from healthy donors by the method described in Test Example 1 to obtain a cell suspension (8 x 10^6/ml). Subsequently, solutions of a test compound at various concentrations were introduced into wells of a 96-well plate in a volume of 125 µl per well, the cell suspension of an equivalent volume was added to it and the plate was preincubated at room temperature for 5 minutes. During the preincubation, FMLP (1 µM, Sigma) solution was added to the lower chamber to set Boyden Chamber, the preincubated cell suspension was added to the upper chamber in a volume of 200 µl per well, and the cells were allowed to migrate at 37°C under 5% carbon dioxide for 30 minutes. The filter after the migration was collected, and the non-migrated cells adhered to the surface that faced the upper chamber were carefully wiped off. Then, the migrated cells on the back surface were stained with DifQuick dye solution (International Reagents), washed with water and dried, and then absorbance was measured at 595 nm. The inhibition ratio against migration (%) of a test compound was calculated by using the following equation: Migration inhibition ratio (%) = (1 -Absorbance of the group with addition of test compound /Absorbance of the group without addition of test compound) x 100 [formula]

[2] = test system: human neutrophil fraction; test: Action on increase of intracellular calcium concentration, Fura2-AM, fMLP (Test Example 7); assay type: cell-based; conditions: test compound 1 µM added 3 minutes before fMLP (1 µM), R = F340/F380, without test compound = 100%, read-out: Maximum R value (%)
Protocol: According to the method described in Test Example 1, a neutrophil containing fraction was prepared. Fura2-AM (Sigma) at a final concentration of 3 µM was added to the human neutrophil fraction and the mixture was incubated at 37°C for 1 hour. After centrifugation (250 g for 5 minutes), the supernatant was discarded, and the neutrophils were resuspended in Hanks' Balanced Salt Solution (HBSS, Gibco) to prepare a cell suspension (8 x 10^6/ml) for measurement of intracellular calcium concentration. The cell suspension for measurement of intracellular calcium concentration was left stand at room temperature for 30 minutes. Then, 490 µl of the cell suspension for measurement of intracellular calcium concentration was placed in a cuvette, 10 µl of calcium chloride solution at a final concentration of […] was added to it and the cuvette was set in an intracellular calcium concentration analyzer (CAF110, Nippon Bunko). fMLP (Sigma) solution at a final concentration of 1 µM was added to the cell suspension, and F340 and F380, which are fluorescence intensity at 340 nm and 380 nm, respectively, were measured to obtain an R value (F340/F380) as an index of the intracellular calcium concentration. A test compound (1 µM) was added 3 minutes before the addition of fMLP, and the action on the intracellular calcium concentration was observed. The ratios of the maximum R value obtained with addition of each test compound, based on the maximum R value obtained without addition of test compound and taken as 100%, are shown in Table 10 mentioned below.

[3] = test system: thoracic aorta; test: Vasoconstriction inhibitory action on aorta rings constricted with phenylephrine (Test Example 2); parameters: species or system Rats (Wistar, 11-week old); conditions: aorta constricted with phenylephrine (1 µM); for inhibition at 1 µM: Rattus norvegicus, test compound 1 µM, read-out: Vasoconstriction inhibitory action (relaxation ratio) (%); for vasoconstriction inhibitory action: result in words
From the text: Rats (Wistar, 11-week old) were bleeded to death and laparotomized to take out the thoracic aorta.

[4] = test system: BALB/c female mice; test: Respiratory tract inflammation suppressing action, OVA-induced (Test Example 6); assay type: in vivo; conditions: for Total WBC count x 10E5/ml/mouse: orally 30 mg/kg once a day for 5 days, inhalation of 2% OVA, alveoli washed after 24 hours
Protocol: According to the method described in Henderson, W.R., et al., Am. J. Respir. Cric. Care Med., 165(1), 108-116 (2002), suppressing action on bronchial inflammation was confirmed. BALB/c female mice (7-week old) were used for the test, each group consisting of 7 mice, and the control group consisting of 11 or 12 mice. The mice were intraperitoneally administered with ovalbumin (OVA, 100 ng, Sigma) and 1 mg of aluminum hydroxide for initial immunization, and after 2 weeks, they are subcutaneously administered with 10 ng of OVA as additional immunization. After further 1 week, a test compound was dissolved in water containing 0.5% carboxymethylcellulose and orally administered (30 mg/kg) to the test animals once a day for 5 days. The control group was similarly given only with water containing 0.5% carboxymethylcellulose. After 1 hour, the mice were orally inhaled with 2% OVA for 10 minutes to induce a respiratory tract inflammation. Further, the control group, in which the mice were not given with the test compound, was divided into a positive control group (n = 7), in which the mice were inhaled with 2% OVA to induce the reaction, and a negative control group (n = 4 or 5), in which the mice were similarly inhaled with physiological saline. After 24 hours, alveoli in the lungs of the test animals were washed with physiological saline, and the total infiltrated white blood cells (WBC) were counted.

[5] = test system: myosin regulatory light chain; test: Action on amount of phosphorylated myosin regulatory light chain in the cells (Test Example 1); assay type: cell-based, human; conditions: neutrophils of healthy volunteers, reaction with test compound at 25°C for 5 minutes, read-out: Inhibition of myosin regulatory light chain phosphorylation (IC50: µM)
Protocol: The neutrophils were washed with PBS(-) and resuspended in Hanks' Balanced Salt Solution (HBSS+, Gibco) to prepare a cell suspension (8 x 10^6/ml). The cell suspension was diluted to 5 x 10^6/ml, introduced into Eppendorf tubes in a volume of 0.4 ml each, then 0.1 ml each of solutions of a test compound at various concentrations were added to the suspension and allowed to react at 25°C for 5 minutes. After the reaction, 0.1 ml of trichloroacetic acid solution was added to each reaction, the reaction mixture was gently shaken and centrifuged at 12,000 rpm (4°C, 5 minutes), and the supernatant was removed. Subsequently, 3 μl of 1 M Tris solution was added to the residue, the mixture was further mixed with 50 μl of extraction buffer (8 M urea, 0.02% 2-mercaptoethanol, 0.002% bromophenol blue) and left stand at room temperature for 1 hour. Then, the reaction mixture was loaded on a spin column (0.45 μm, Millipore) to remove the insoluble solids and a sample buffer for SDS polyacrylamide gel electrophoresis (25 mM, Tris-HCl pH 6.8, 2.5% 2-mercaptoethanol, 2% sodium dodecylsulfate, 5% sucrose, 0.002% bromophenol blue as final concentrations) was added, and 10 μl of each sample was subjected to electrophoresis. […] J. Physiol., 274, […]-[…] (1998)), which specifically recognize the phosphorylated myosin regulatory light chain, and donkey anti-mouse IgG (Chemicon) conjugated with horseradish peroxidase (HRP-labeled). The band of the phosphorylated myosin regulatory light chain was detected on a film by using ECL Plus Kit (Amersham Pharmacia Biotech). This band was subjected to quantification using a densitometer. By using this value, the inhibitory ratio (%) for phosphorylation of the myosin regulatory light chain was calculated by using the following equation.

[6] = test system: ovalbumin-immunized guinea pigs; test: Respiratory tract constriction suppression action, ovalbumin-induced (Test Example 3); assay type: in vivo, Hartley guinea pigs; conditions: result in words; test medicament given into hind leg vein after induction with 0.3 mg/kg ovalbumin, measured for 15 minutes
Protocol: Four-week old Hartley guinea pigs (male) were immunized by intraperitoneal administration of ovalbumin (Sigma, Grade V) in amounts of 1 mg for each animal on the day on which the experiment was started, 3 mg for each animal after 2 days, and 10 mg for each animal after 4 days. Twelve to fourteen days after the final immunization, the ovalbumin-immunized guinea pigs were anesthetized by intraperitoneal administration of about 40 mg/kg of pentobarbital (Somnopentyl), and the tracheas were taken out. Subsequently, a cannula (SP-110, Natsume) was inserted into each trachea, and one end of the cannula was connected to an artificial respirator (Model-b83, Harvard). The aeration conditions were set at 6 ml per kilogram and 60 times per 1 minute. Further, a cannula for medicament administration (JMS wing needle 23G 3/4) was inserted into a hind leg vein. Myoblock (Organon Technica) was administered in an amount of 0.5 mg/kg from the cannula inserted into the hind leg vein to stop the spontaneous breathing, and after 2 or 3 minutes, 0.3 mg/kg of ovalbumin was administered to induce constriction of respiratory tract. The increase of airway resistance value 2 minutes after the induction (measurement apparatuses: pressure transducer TR-603T, respiratory amplifier AR-601G, and recorder RTA-3100, Nihon Kohden Corp.) was confirmed to be above 80 cm H2O or higher, and then, a solution of a test medicament was administered from the cannula inserted into the hind leg vein, and the airway resistance value was continuously measured for 15 minutes after the administration to determine the effect.

[7] = Homo sapiens, Neutrophil, 5 min

Compound: Cl.NCCCN(CCCc1ccccc1)S(=O)(=O)c1cccc2cnccc12 [Example 1, N-[(5-Isoquinolyl)sulfonyl]-N-(3-phenylpropyl)-1,3-propylenediamine hydrochloride]
- IC50 [1]: ≤ 1000 nM
- activity at 1 µM [2]: 98%
- inhibition at 1 µM [3]: 73.8%
- Total WBC count x 10E5/ml/mouse [4]: 300 x 10E5/ml/mouse
- IC50 [5, 7]: 0.8 µM

Compound: Cl.NCCCN(CCc1cccs1)S(=O)(=O)c1cccc2cnccc12 [Example 2, N-[(5-Isoquinolyl)sulfonyl]-N-[2-(2-thienyl)ethyl]-1,3-propylenediamine hydrochloride]
- constriction of respiratory tract (airway resistance value) [6]: significantly improved the constriction of respiratory tract
- IC50 [1]: 1000 to 10000 nM
- activity at 1 µM [2]: 99%
- vasoconstriction inhibitory action [3]: significant vasoconstriction inhibitory action
- Total WBC count x 10E5/ml/mouse [4]: 200 x 10E5/ml/mouse
- IC50 [5, 7]: 0.8 µM

Compound: Cc1cncc2cccc(S(=O)(=O)N(CCCN)CCCc3ccccc3)c12.Cl [Example 5, N-[(4-Methyl-5-isoquinolyl)sulfonyl]-N-(3-phenylpropyl)-1,3-propylenediamine hydrochloride]
- IC50 [1]: ≤ 1000 nM
- activity at 1 µM [2]: 98%
- vasoconstriction inhibitory action [3]: significant vasoconstriction inhibitory action
- IC50 [5, 7]: 0.8 µM

Compound: Cl.NCCN(CCS(=O)(=O)c1ccccc1)S(=O)(=O)c1cccc2cnccc12 [Example 7, N-[(5-Isoquinolyl)sulfonyl]-N-[2-(phenylsulfonyl)ethyl]ethylenediamine hydrochloride]
- activity at 1 µM [2]: 101%
- inhibition at 1 µM [3]: 64.3%
- Total WBC count x 10E5/ml/mouse [4]: 400 x 10E5/ml/mouse
- IC50 [5, 7]: 30 µM

Compound: Cl.NCCCN(CCCc1ccccc1)S(=O)(=O)c1cccc2c(N)nccc12 [Example 8, N-[(1-Amino-5-isoquinolyl)sulfonyl]-N-(3-phenylpropyl)-1,3-propylenediamine hydrochloride]
- IC50 [1]: ≤ 1000 nM
- activity at 1 µM [2]: 99%
- vasoconstriction inhibitory action [3]: significant vasoconstriction inhibitory action
- IC50 [5, 7]: 0.3 µM

Compound: Cl.NCCCOc1cccc2c(N)nccc12 [Example 10, 3-[(1-Amino-5-isoquinolyl)oxy]propylamine hydrochloride]
- IC50 [1]: 1000 to 10000 nM
- activity at 1 µM [2]: 99%
- Total WBC count x 10E5/ml/mouse [4]: 150 x 10E5/ml/mouse
- IC50 [5, 7]: 10 µM

Compound: Cl.NCCN(CCS(=O)(=O)c1ccccc1)S(=O)(=O)c1cccc2c(O)nccc12 [Example 12, N-[(1-Hydroxy-5-isoquinolyl)sulfonyl]-N-[2-(phenylsulfonyl)ethyl]ethylenediamine hydrochloride]
- constriction of respiratory tract (airway resistance value) [6]: significantly improved the constriction of respiratory tract
- IC50 [1]: 1000 to 10000 nM
- vasoconstriction inhibitory action [3]: significant vasoconstriction inhibitory action
- Total WBC count x 10E5/ml/mouse [4]: 100 x 10E5/ml/mouse
- IC50 [5, 7]: 20 µM

Compound: Cl.c1cc(NC2CCNCC2)c2ccncc2c1 [Example 20, 4-(5-Isoquinolyl)aminopiperidine hydrochloride]
- constriction of respiratory tract (airway resistance value) [6]: significantly improved the constriction of respiratory tract
- IC50 [1]: 1000 to 10000 nM
- activity at 1 µM [2]: 100%
- inhibition at 1 µM [3]: 82.8%
- IC50 [5, 7]: 1.8 µM

Compound: Cc1cncc2cccc(NC3CCNCC3)c12.Cl [Example 106, 4-(4-Methyl-5-isoquinolyl)aminopiperidine hydrochloride]
- constriction of respiratory tract (airway resistance value) [6]: significantly improved the constriction of respiratory tract
- IC50 [1]: 10000 to 40000 nM
- vasoconstriction inhibitory action [3]: significant vasoconstriction inhibitory action
- infiltrated white blood cell number ([4]; result in words): decrease of infiltrated white blood cell number
- IC50 [5, 7]: ≤ 40 µM
- IC50 ([5]; hydrochloride): ≤ 20 µM
